Assay [1] has as its system Human mast cells (CHMC). The assay is described as follows: Mast cell activation induced by FcγR cross-linking: cytokine production (ELISA). It counts as cell-based. The following applies: 6-8 hrs post-IgG crosslinking. On the procedure:
(§1) Human mast cells were cultured and differentiated from […] progenitor cell as described in U.S. Patent Publication No. 2005-234049, incorporated herein by reference. […] A80-105A3) final concentration 1 μg/ml, was added to the test wells. MT (25 μl) was added to control wells. After a 60-minute incubation at 37° C., cells and cell debris were pelleted by centrifugation at 1000 rpm for 10 min and tryptase and leukotriene C4 levels were measured. Inhibition of release and/or synthesis of lipid mediators was assessed by measuring the release of LTC4 and inhibition of release and/or synthesis of cytokines was monitored by quantifying TNFα, IL-8, GM-CSF, IL-10 and IL-13. Cytokine (TNFα, IL-8, GM-CSF, IL-10, IL-13) production was measured 6-8 hrs post-IgG crosslinking. Leukotriene and cytokine levels were quantified using the following commercial ELISA kits: LTC4 (Cayman Chemical #520211), TNFα (Biosource #KHC3011), GM-CSF (Biosource #KHC0901), IL-10 (Biosource #KHC0122), and IL-13 (Biosource #KHC0132).
On the technique in general: An ELISA detects its analyte on a solid surface through an enzyme-linked reagent.

The subject of assay [2] is Human mast cells (CHMC). The assay is described as follows: Mast cell activation induced by FcγR cross-linking: degranulation (tryptase). It counts as cell-based. The following applies: anti-IgG 1 μg/ml, 60-minute incubation. Here is the method:
Human mast cells were cultured and differentiated from CD38-negative progenitor cell as described in U.S. Patent Publication No. 2005-234049, incorporated herein by reference. For example, 65 μl of various concentrations of 6-(5-fluoro-2-(3,4,5-trimethoxyphenylamino) pyrimidin-4-ylamino)-2,2-dimethyl-2H-pyrido[3,2-b][1,4]oxazin-3(4H)-one (compound 1), prepared in MT (137 mM NaCl, 2.7 mM KCl, 1.8 mM CaCl2, 1.0 mM MgCl2, 5.6 mM Glucose, 20 mM Hepes (pH 7.4), 0.1% Bovine Serum Albumin, (Sigma A4503)) containing 2% MeOH and 1% DMSO, or control buffer were added to duplicate 96-well V-bottom plates. Pelleted and resuspended (in warm MT) CHMC cells (65 μl) were added to each 96-well plate, mixed and incubated for 1 hr at 37° C. […] After a 60-minute incubation at 37° C., cells and cell debris were pelleted by centrifugation at 1000 rpm for 10 min and tryptase and leukotriene C4 levels were measured.
To measure tryptase levels, 25 μl of supernatant from each well was transferred to a fresh 96-well black bottom plate, to which 100 μl of fresh tryptase substrate solution [(Z-Ala-Lys-Arg-AMC2TFA; Enzyme Systems Products, #AMC-246)] […] After 30 min incubation at room temperature, the optical density of the plates is measured at 355 nm/460 nm on a spectrophotometric plate reader. […]

In assay [3] the test system is Human mast cells (CHMC). The assay is described as follows: Mast cell activation induced by FcγR cross-linking: LTC4 release (ELISA). Type of assay: cell-based. The following applies: anti-IgG 1 μg/ml. Here is the method: as §1, with “measured. Leukotriene C4 (LTC4) levels were quantified using an ELISA kit on appropriately diluted supernatant samples following the supplier's instructions (Cayman Chemical Co., Cat No. 520211).” for “measured.”

In the next assay the test system is Platelets in PRP. The experiment in a line: CD62P surface expression by stimulated platelets (flow cytometry). The following applies: 15 min at 37° C. It counts as cell-based, Human. On the procedure: Human peripheral blood, from healthy volunteers who had not taken any medication for at least 7 days, was drawn into Vacutainer-ACD tubes (Acid citrate dextrose (ACD) Solution Tubes, VWR Cat. No. VT4606). Platelet-rich plasma (PRP) and platelet-poor plasma (PPP) were prepared by differential centrifugation (200 g and >2500 g, respectively, 20 min, RT). Platelets in PRP were incubated for 10 min at 37° C. with test article-DMSO solutions that had been previously diluted in MT buffer (137 mM NaCl, 2.7 mM KCl, 1.8 mM CaCl2, 1.0 mM MgCl2, 5.6 mM glucose, 20 mM Hepes, 0.1% BSA; pH 7.4). The test articles included dimethyl Sulfoxide (DMSO) (Sigma-Aldrich, Cat No. D2650), wortmannin Penicillium funiculosum (Sigma-Aldrich, Cat No. W1628), and 6-(5-fluoro-2-(3,4,5-trimethoxyphenylamino)pyrimidin-4-ylamino)-2,2-dimethyl-2H-pyrido[3,2-b][1,4]oxazin-3(4H)-one (compound 1).
Cells were stimulated with collagen (Chronolog Corp. Cat. No. 385) at 20 μg/mL, adenosine 5′-diphosphate (ADP) (Sigma-Aldrich Cat. No. A2754) at 33 μM, or phorbol 12-Myristate 13-Acetate (PMA) (Sigma-Aldrich Cat. No. P8139) at 33 ng/mL, for 15 min at 37° C., then incubated with staining antibody (anti-CD62P PE) at RT in the dark for 20 min, and fixed with paraformaldehyde (Cytofix fixation buffer) in the dark for 30 min at RT. Finally, cells were washed with PBS containing 2% fetal bovine serum and stored at 4° C. in the dark prior to flow cytometry. Measurements were performed using a FACScalibur flow cytometer (BD Biosciences, San Jose, Calif., USA). CD62P expression was expressed as geometric mean fluorescence on the vertical axis.
(In flow cytometry, cells or beads pass a laser one at a time.)

In general, EC50 refers to the midpoint of the concentration-response curve. As to `COc1cc(Nc2ncc(F)c(Nc3ccc4c(n3)NC(=O)C(C)(C)O4)n2)cc(OC)c1OC` [Compound 1, 6-(5-fluoro-2-(3,4,5-trimethoxyphenylamino)pyrimidin-4-ylamino)-2,2-dimethyl-2H-pyrido[3,2-b][1,4]oxazin-3(4H)-one], the EC50 in the assay on Human mast cells (CHMC) [1] (listed as lot B, read-out: EC50 GMCSF) came to 67 nM; in the assay with Human mast cells (CHMC) [1] (listed as lot B, read-out: EC50 IL-8) it was 62 nM; with Human mast cells (CHMC) [1] (listed as lot B, read-out: EC50 IL-10) it was 148 nM; in the assay with Human mast cells (CHMC) [1] (listed as lot B, read-out: EC50 IL-13), 148 nM; in the assay with Human mast cells (CHMC) [1] (listed as lot B, read-out: EC50 TNFα), 120 nM; in the assay on Human mast cells (CHMC) [1] (Homo sapiens, Mast cell, read-out: EC50 GMCSF), 46 nM. For the same compound, the EC50 stood at 45 nM in the assay with Human mast cells (CHMC) [1] (Homo sapiens, Mast cell, read-out: EC50 IL-8); 125 nM in the assay on Human mast cells (CHMC) [1] (Homo sapiens, Mast cell, read-out: EC50 IL-10); 90 nM in the assay with Human mast cells (CHMC) [1] (Homo sapiens, Mast cell, read-out: EC50 IL-13); 53 nM in the assay on Human mast cells (CHMC) [2] (Homo sapiens, Mast cell, 1 h); 76 nM with Human mast cells (CHMC) [2] (listed as lot B); 36 nM in the assay on Human mast cells (CHMC) [3] (Homo sapiens, Mast cell). The EC50 in the assay on Human mast cells (CHMC) [3] (listed as lot B) worked out at 47 nM. The “CD62P surface upregulation in platelets induced by ADP” value in the assay with Platelets in PRP (ADP 33 μM) is listed as “did not inhibit”. Moreover, the “CD62P surface upregulation in platelets induced by PMA” value with Platelets in PRP (PMA 33 ng/mL) was “did not inhibit”. Further, the “collagen receptor mediated platelet activation (CD62P surface expression)” value in the assay with Platelets in PRP (collagen 20 μg/mL) was “inhibited”.

For the origin of these results see patent US8530466B2, “Use of 2,4-pyrimidinediamines for the treatment of atherosclerosis” (Rigel Pharmaceuticals, Inc., priority 2008, dated 2013).
